Assay [1] relates to stressed C57BL/6-Elite mice. Put plainly: Mouse marble burying (MB) assay to assess anxiolytic potential. The format is in vivo. The following applies: i.p., psilocin 3 mg/kg, compound (XV) 10 mg/kg; vs Vehicle+Stress. On the procedure:
Marble burying behavior is used to measure the level of anxiety in a rodent when it encounters unfamiliar objects (Deacon, 2006, Nature Protocols 1:122-124). This assay is routinely applied to the study of chronically stressed mice, where drug candidates are evaluated for an ability to diminish stress-induced, anxiety-like behaviours (e.g., Wang et al., ACS Chem. Neurosci. 14:977-987). Positive results in this assay may be interpreted as an indication of therapeutic (anxiolytic) potential in the treatment of various psychiatric disorders. Herein, we applied the marble burying model to investigate whether selected drugs could alleviate anxiety behaviour in stressed mice.
All animal protocols were approved by the University of Calgary Animal Care and Use Committee. C57BL/6-Elite mixed sex mice were obtained from Charles River Laboratories (Toronto, Canada) at 8-9 weeks old. […]
On the testing days, 10 glass marbles (approx. 15 mm in diameter) were evenly spaced on 5 cm of wood-chip bedding (lightly tamped down to make a flat and even surface). […] The number of marbles buried to ⅔rds their depth was measured. Fully buried marbles were counted as 1 and partially (at least ⅔rds) buried marbles were counted as 0.5. […]

The next assay deals with T1, 5-HT2A receptor (Homo sapiens, UniProt P28223).
T1 construct: purchased PerkinElmer ES-313-M400UA
T1 sequence (P28223 whole entry): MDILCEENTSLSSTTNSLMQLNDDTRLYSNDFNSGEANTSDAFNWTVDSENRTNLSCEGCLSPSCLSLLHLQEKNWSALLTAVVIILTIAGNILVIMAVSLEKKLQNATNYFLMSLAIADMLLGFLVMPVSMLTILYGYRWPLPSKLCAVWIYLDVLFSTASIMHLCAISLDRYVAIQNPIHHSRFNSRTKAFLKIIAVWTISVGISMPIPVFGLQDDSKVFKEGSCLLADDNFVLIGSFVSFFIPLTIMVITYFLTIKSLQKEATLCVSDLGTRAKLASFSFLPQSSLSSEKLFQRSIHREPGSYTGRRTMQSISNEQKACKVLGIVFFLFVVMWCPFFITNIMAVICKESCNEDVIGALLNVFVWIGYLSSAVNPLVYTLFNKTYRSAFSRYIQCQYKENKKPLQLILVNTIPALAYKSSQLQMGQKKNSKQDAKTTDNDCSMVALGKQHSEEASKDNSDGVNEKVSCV
Put plainly: Functional cell-based 5-HT2A assay, agonism mode (CHO-K1/5-HT2A, Fluo-8 calcium flux). The following applies: CHO-K1/5-HT2A cells.

Assay [2] relates to stressed C57BL/6-Elite mice. Put plainly: Mouse sucrose preference (SP) assay to assess antidepressant potential. The format is in vivo. The conditions noted are these: i.p., psilocin 3 mg/kg, compound (XV) 10 mg/kg; one day after administration. Here is the method:
Reduced intake of pleasurable substances, e.g., of sucrose water, is a validated behavioral measure of anhedonic/depressive-like state in rodents (Moreau et al., 1992, Eur. Neurpsychopharmocol. 2:43-49; Liu et al., 2018, Nature Protocols 13:1686-1698). […] In the SP assay, cohorts of mice are pre-stressed, leading to a depressed state. The ability of drugs to rescue this state are evaluated.
All animal protocols were approved by the University of Calgary Animal Care and Use Committee. C57BL/6-Elite mixed sex mice were obtained from Charles River Laboratories (Toronto, Canada) at 8-9 weeks old. Mice were maintained on a 12:12 h light/dark schedule (lights on at 07:00 hours) with ad libitum access to food and water and group-housed until 2 days prior to the start of the mild chronic stress paradigm, then mice were single-housed. […]
Mice were introduced to 1% sucrose solution in their drinking water for 24 hrs for 2 days prior to initial sucrose preference testing to reduce impact of novelty. […] The consumption in water, sucrose solution, and total intake of liquids was measured by weighing each bottle before and after the 24-hr experiment. The preference for sucrose was calculated as a percentage of the consumed sucrose solution from the total intake of both water and sucrose solutions. […]

Structures are written as SMILES.

Experimental for 5-HT2A receptor: Herein, functional, cell-based assays were conducted to determine (1) agonist potency and efficacy of drugs at the 5-HT2A receptor (agonist mode), and (2) antagonist potency at the 5-HT2A receptor (antagonist mode).
All cells were grown and maintained as a monolayer in Ham's F12 nutrient mix supplemented with 10% fetal bovine serum (FBS) and 400 μg/mL geneticin (G418) all from ThermoFisher Scientific and used according to the manufacturer's instructions. Cells were cultured and incubated at 37° C. in a humidified oxygen atmosphere with 5% CO2. To evaluate the activation of 5-HT2A signal transduction, cells were first seeded in tissue culture-treated, black-walled, clear-bottom 96-well plates (Thermo Scientific) at a density of 40,000 cells/well in 100 pl Ham's F12 nutrient mix supplemented with 2% FBS. Cells were cultured for 24 h in a humidified incubator at 37° C. and 5% CO2. Cells were then loaded with Fluo-8 calcium indicator dye for 1 h at 37° C. and an additional 30 min at room temperature as per the manufacturer's protocol. […] Kinetic increases in intracellular calcium levels were measured immediately after addition of test compounds every 6.4 s for a total of 3 min using the FlexStation 3 multimode microplate reader and SoftMax Pro 7.1 analysis software (Molecular Devices, moleculardevices.com). […] EC50 values were calculated from the normalized data from GraphPad PRISM software.

For `CN(C)CCc1c[nH]c2cc(F)cc(N3CCOCC3)c12` [Compound (XV)], the “anxiety-linked (marble burying) behavior in stressed mice” value in assay [1] is listed as “alleviated”. For the same molecule, on 5-HT2A receptor, the “engagement at the 5-HT2A receptor, agonist mode” value is “agonism”. In assay [2], the “sucrose preference behaviour in stressed mice vs no drug control” value is recorded as “significant preference for sucrose”.

Source of the values: patent publication US12577232B2, “N-heterocycle substituted tryptamine derivatives and methods of using” (ENVERIC B[…] INC., priority 2024, dated 2026).
